Like-named read-outs stand apart in the source and are kept apart here.
Molecular target: Recombinant human cathepsin A (Homo sapiens (Human), UniProt P10619)
Assay: Cathepsin A inhibitory activity (cleavage of Bodipy FL-labeled bradykinin, microfluidic capillary electrophoresis)
Assay type: biochemical
[1] = read-out: Activity [μM] (IC50, cathepsin A inhibitory activity)
[2] = read-out: Activity (IC50, cathepsin A inhibitory activity)
[3] = read-out: Activity (IC50, cathepsin A inhibition)

Recombinant human cathepsin A, sequence (P10619 29-326): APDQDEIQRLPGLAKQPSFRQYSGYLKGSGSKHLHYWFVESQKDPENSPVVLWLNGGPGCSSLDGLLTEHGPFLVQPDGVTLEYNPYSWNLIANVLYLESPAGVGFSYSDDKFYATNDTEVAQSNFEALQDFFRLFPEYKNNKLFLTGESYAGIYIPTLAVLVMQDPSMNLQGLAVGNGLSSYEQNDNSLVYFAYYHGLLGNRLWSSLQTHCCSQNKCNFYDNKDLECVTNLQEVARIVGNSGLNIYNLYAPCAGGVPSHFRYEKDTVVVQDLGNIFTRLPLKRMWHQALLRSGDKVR
Recombinant human cathepsin A, sequence (P10619 327-480): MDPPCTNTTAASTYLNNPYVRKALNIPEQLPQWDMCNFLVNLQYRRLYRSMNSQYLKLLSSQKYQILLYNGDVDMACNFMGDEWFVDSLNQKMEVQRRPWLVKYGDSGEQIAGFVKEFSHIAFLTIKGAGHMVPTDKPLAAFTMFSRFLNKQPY
Method: Pharmacological Tests a) Cathepsin A Inhibitory Activity
Briefly, cathepsin A was incubated at 10 μg/ml with cathepsin L at 1 μg/ml in activation buffer (25 mM 2-(morpholin-4-yl)-ethanesulfonic acid (MES), pH 6.0, containing 5 mM dithiothreitol (DTT)) for 15 min at 37° C.
The activated cathepsin A was diluted in assay buffer (25 mM MES, pH 5.5, containing 5 mM DTT) and mixed with the test compound (dissolved in assay buffer containing (v/v) 3% DMSO) or, in the control experiments, with the vehicle in a multiple assay plate. After incubation for 15 min at room temperature, as substrate then bradykinin carrying an N-terminal ®Bodipy FL (4,4-difluoro-5,7-dimethyl-4-bora-3a,4a-diaza-s-indacene-3-propionyl) label (JPT Peptide Technologies GmbH; dissolved in assay buffer) was added to the mixture. […] After incubation for 15 min at room temperature the reaction was stopped by the addition of stop buffer (130 mM 2-(4-(2-hydroxy-ethyl)-piperazin-1-yl)-ethanesulfonic acid, pH 7.4, containing (v/v) 0.013% ®Triton X-100, 0.13% Coating Reagent 3 (Caliper Life Sciences), 6.5% DMSO and 20 μM ebelactone B (Sigma, #E0886)).
Uncleaved substrate and product were then separated by a microfluidic capillary electrophoresis on a LabChip® 3000 Drug Discovery System (12-Sipper-Chip; Caliper Life Sciences) and quantified by determination of the respective peak areas. Substrate turnover was calculated by dividing product peak area by the sum of substrate and product peak areas, and the enzyme activity and the inhibitory effect of the test compound thus quantified.

SMILES	IC50 [2]	other results
COc1ccc(C(=O)N[C@@H](CC(=O)O)c2ccccc2C)nc1-c1ccc(C)o1 [compound 376]	–	IC50 [1]: 6.1 µM
COc1ccc(C(=O)N[C@@H](CC(=O)O)c2ccccc2C)nc1-c1cc(C)cc(Cl)c1 [compound 378]	–	IC50 [1]: 7.49 µM
COc1ccc(C(=O)N[C@@H](CC(=O)O)c2ccccc2C)nc1-c1ccc2ccn(C)c2c1 [compound 380]	–	IC50 [1]: 5.33 µM
COc1ccc(C(=O)N[C@@H](CC(=O)O)c2ccccc2C)nc1-c1ccnc(N2CCOCC2)c1 [compound 381]	–	IC50 [1]: > 10 µM
COc1ccc(C(=O)N[C@@H](CC(=O)O)c2ccccc2C)nc1-c1cccc(F)c1Cl [compound 383]	–	IC50 [1]: 1.64 µM
COc1ccc(C(=O)N[C@@H](CC(=O)O)c2ccccc2C)nc1-c1cccc(C2(O)COC2)c1 [compound 384]	–	IC50 [1]: 2.39 µM
COc1ccc(C(=O)N[C@@H](CC(=O)O)c2ccccc2C)nc1-c1cccc(C(C)(C)O)c1 [compound 385]	–	IC50 [1]: 1.15 µM
COc1ncc(C(=O)N[C@@H](CC(=O)O)c2ccccc2Cl)cc1-c1ccc(Cl)cc1 [compound 386]	–	IC50 [1]: 10.4 µM
COc1ccc(-c2cc(C(=O)N[C@@H](CC(=O)O)c3ccccc3Cl)cnc2OC)cc1 [compound 387]	–	IC50 [1]: 9.43 µM
COc1ncc(C(=O)N[C@@H](CC(=O)O)c2ccccc2Cl)cc1-c1ccc(C)cc1 [compound 388]	–	IC50 [1]: 7.12 µM
COc1cccc(-c2cc(C(=O)N[C@@H](CC(=O)O)c3ccccc3Cl)cnc2OC)c1 [compound 391]	–	IC50 [1]: 10.6 µM
COc1ncc(C(=O)N[C@@H](CC(=O)O)c2ccccc2Cl)cc1-c1cccc(Cl)c1 [compound 392, (S)-3-(2-Chloro-phenyl)-3-{[5-(3-choro-phenyl)-6-methoxy-pyridine-3-carbonyl]-amino}-propionic acid]	–	IC50 [1]: 10.3 µM
COc1ccccc1-c1cc(C(=O)N[C@@H](CC(=O)O)c2ccccc2Cl)cnc1OC [compound 394]	–	IC50 [1]: 3.76 µM
COc1ncc(C(=O)N[C@@H](CC(=O)O)c2ccccc2Cl)cc1-c1cccc(C)c1 [compound 395]	–	IC50 [1]: 6.57 µM
COc1ncc(C(=O)N[C@@H](CC(=O)O)c2ccccc2Cl)cc1-c1cccc(-c2ccccc2)c1 [compound 400]	> 10 µM	–
COc1ncc(C(=O)N[C@@H](CC(=O)O)c2ccccc2Cl)cc1-c1ccc(F)cc1C [compound 404]	7.14 µM	–
COc1ncc(C(=O)N[C@@H](CC(=O)O)c2ccccc2C)cc1-c1ccccc1 [compound 405]	3.9 µM	–
COc1ncc(C(=O)N[C@@H](CC(=O)O)c2ccccc2C)cc1-c1ccc(F)c(Cl)c1 [compound 406]	10 µM	–
COc1ncc(C(=O)N[C@@H](CC(=O)O)c2ccccc2C)cc1-c1ccc(F)cc1 [compound 407]	4.39 µM	–
COc1ncc(C(=O)N[C@@H](CC(=O)O)c2ccccc2C)cc1-c1ccc(Cl)cc1 [compound 408]	5.73 µM	–
COc1ccc(-c2cc(C(=O)N[C@@H](CC(=O)O)c3ccccc3C)cnc2OC)cc1 [compound 409]	9.04 µM	–
COc1ncc(C(=O)N[C@@H](CC(=O)O)c2ccccc2C)cc1-c1ccc(C)cc1 [compound 410]	5.38 µM	–
COc1ncc(C(=O)N[C@@H](CC(=O)O)c2ccccc2C)cc1-c1ccccc1C [compound 411]	1.19 µM	–
COc1cccc(-c2cc(C(=O)N[C@@H](CC(=O)O)c3ccccc3C)cnc2OC)c1 [compound 412]	8.36 µM	–
COc1ncc(C(=O)N[C@@H](CC(=O)O)c2ccccc2C)cc1-c1cccc(Cl)c1 [compound 413]	6.24 µM	–

SMILES	IC50 [2]	other results
COc1ncc(C(=O)N[C@@H](CC(=O)O)c2ccccc2C)cc1-c1cccc(F)c1 [compound 414]	8.07 µM	–
COc1ccccc1-c1cc(C(=O)N[C@@H](CC(=O)O)c2ccccc2C)cnc1OC [compound 416]	3.42 µM	–
COc1ncc(C(=O)N[C@@H](CC(=O)O)c2ccccc2C)cc1-c1cccc(C)c1 [compound 417]	4.86 µM	–
COc1ncc(C(=O)N[C@@H](CC(=O)O)c2ccccc2C)cc1-c1ccccc1F [compound 418]	1.08 µM	–
COc1ncc(C(=O)N[C@@H](CC(=O)O)c2ccccc2C)cc1-c1ccc(C#N)cc1 [compound 421]	10.4 µM	–
COc1ncc(C(=O)N[C@@H](CC(=O)O)c2ccccc2C)cc1-c1cccc(-c2ccccc2)c1 [compound 423]	> 10 µM	–
COc1ncc(C(=O)N[C@@H](CC(=O)O)c2ccccc2C)cc1-c1ccc(F)c(F)c1 [compound 425]	8.84 µM	–
COc1ccc(C(=O)N[C@@H](CC(=O)O)c2ccccc2Cl)nc1-c1cccc(F)c1 [compound 426]	1.54 µM	–
COc1ccc(C(=O)N[C@@H](CC(=O)O)c2ccccc2Cl)nc1-c1ccc2ccccc2c1 [compound 427, (S)-3-(2-Chloro-phenyl)-3-[(5-methoxy-6-naphthalen-2-yl-pyridine-2-carbonyl)-amino]-propionic acid]	7.11 µM	–
COc1ccc(C(=O)N[C@@H](CC(=O)O)c2ccccc2Cl)nc1-c1cccc(C#N)c1 [compound 433]	8.26 µM	–
COc1ccc(C(=O)N[C@@H](CC(=O)O)c2ccccc2Cl)nc1-c1cccc(C(C)=O)c1 [compound 435]	4.2 µM	–
COc1ccc(C(=O)N[C@@H](CC(=O)O)c2ccccc2Cl)nc1-c1cccc(-c2ccccc2)c1 [compound 436]	2.97 µM	–
COc1ccc(C(=O)N[C@@H](CC(=O)O)c2ccccc2Cl)nc1-c1cc(F)cc(F)c1 [compound 439]	2.39 µM	–
COc1ccc(C(=O)N[C@@H](CC(=O)O)c2ccccc2Cl)nc1-c1ccc(F)c(F)c1 [compound 440]	1.96 µM	–
COc1ccc(C(=O)N[C@@H](CC(=O)O)c2ccccc2Cl)nc1-c1ccncc1 [compound 443]	8.04 µM	–
COc1ccc(C(=O)N[C@@H](CC(=O)O)c2ccccc2Cl)nc1-c1cccnc1 [compound 444]	10.1 µM	–
COc1ccc(C(=O)N[C@@H](CC(=O)O)c2ccccc2Cl)nc1-c1ccc(C)c(F)c1 [compound 449]	2.02 µM	–
COc1ccc(C(=O)N[C@@H](CC(=O)O)c2ccccc2Cl)nc1-c1ccc(C)cc1C [compound 450]	1.6 µM	–
COc1ccc(C(=O)N[C@@H](CC(=O)O)c2ccccc2Cl)nc1-c1ccc(F)c(C)c1 [compound 451]	3.79 µM	–
COc1ccc(C(=O)N[C@@H](CC(=O)O)c2ccccc2Cl)nc1-c1ccc(F)nc1 [compound 453]	6.49 µM	–
COc1ccc(C(=O)N[C@@H](CC(=O)O)c2ccccc2Cl)nc1-c1ccccc1C(=O)N(C)C [compound 454]	2.5 µM	–
COc1ccc(Cl)cc1-c1nc(C(=O)N[C@@H](CC(=O)O)c2ccccc2Cl)ccc1OC [compound 459]	1.15 µM	–
COc1ccc(OC)c(-c2nc(C(=O)N[C@@H](CC(=O)O)c3ccccc3Cl)ccc2OC)c1 [compound 461]	8.31 µM	–
COc1ccc(C(=O)N[C@@H](CC(=O)O)c2ccccc2C)nc1-c1ccc(C#N)cc1 [compound 465]	6.8 µM	–
COc1ccc(C(=O)N[C@@H](CC(=O)O)c2ccccc2C)nc1-c1cc(C)cnc1Cl [compound 469]	5.63 µM	–

SMILES	IC50 [2]	other results
COc1ccc(C(=O)N[C@@H](CC(=O)O)c2ccccc2C)nc1-c1cccc(-c2nnc(C)o2)c1 [compound 471, (S)-3-({5-Methoxy-6-[3-(5-methyl-[1,3,4]oxadiazol-2-yl)-phenyl]-pyridine-2-carbonyl}-amino)-3-o-tolyl-propionic acid]	4.23 µM	–
COc1ccc(C(C)(C)C)cc1-c1nc(C(=O)N[C@@H](CC(=O)O)c2ccccc2Cl)ccc1OC [compound 475]	> 10 µM	–
COc1ccc(C(=O)N[C@@H](CC(=O)O)c2ccccc2Cl)nc1-c1ccc(Cl)c(F)c1 [compound 480]	4.37 µM	–
COc1ccc(C(=O)N[C@@H](CC(=O)O)c2ccccc2Cl)nc1-c1cc(C)cnc1Cl [compound 481]	8.77 µM	–
COc1ccc(C(=O)N[C@@H](CC(=O)O)c2ccccc2Cl)nc1-c1cc(C)cc(Cl)c1 [compound 483]	9.49 µM	–
COc1ccc(C(=O)N[C@@H](CC(=O)O)c2ccccc2Cl)nc1-c1cccc(-c2nnc(C)o2)c1 [compound 484]	6.69 µM	–
COc1ccc(C(=O)N[C@@H](CC(=O)O)c2ccccc2Cl)nc1-c1c(C)nn(C)c1C [compound 486]	4.95 µM	–
COc1ccc(C(=O)N[C@@H](CC(=O)O)c2ccccc2Cl)nc1-c1ccnc(N2CCOCC2)c1 [compound 490]	9.08 µM	–
COc1ccc(C(=O)N[C@@H](CC(=O)O)c2ccccc2Cl)nc1-c1cc(C)ccc1Cl [compound 492]	–	IC50 [3]: 1.05 µM
COc1ccc(C(=O)N[C@@H](CC(=O)O)c2ccccc2Cl)nc1-c1ccc(C#N)cc1F [compound 494]	–	IC50 [3]: 11.4 µM
COc1ccc(C(=O)N[C@@H](CC(=O)O)c2ccccc2Cl)nc1-c1cccc(C2(O)COC2)c1 [compound 495]	–	IC50 [3]: 3.89 µM
COc1ccc(C(=O)N[C@@H](CC(=O)O)c2ccccc2Cl)nc1-c1cccc(C(C)(C)O)c1 [compound 496]	–	IC50 [3]: 2.86 µM
O=C(O)CC(NC(=O)c1nc(Cl)ccc1Cl)c1ccc(-c2ccccc2)cc1 (stereo not drawn) [compound 498]	–	IC50 [3]: 8.55 µM
Cc1ccccc1[C@H](CC(=O)O)NC(=O)c1nc(Cl)ccc1Cl [compound 506]	–	IC50 [3]: 8.48 µM
Cc1ccccc1[C@H](CC(=O)O)NC(=O)c1cncc(Cl)n1 [compound 514]	–	IC50 [3]: 1.21 µM
O=C(O)CC(NC(=O)c1cnccn1)c1ccccc1Cl (stereo not drawn) [compound 521]	–	IC50 [3]: 12.8 µM
O=C(O)CC(NC(=O)c1ccncc1)c1ccccc1Cl (stereo not drawn) [compound 524]	–	IC50 [3]: 10.2 µM
Cc1cccc(C(=O)NC(CC(=O)O)c2ccccc2Cl)n1 (stereo not drawn) [compound 527]	–	IC50 [3]: 4.96 µM
Cc1ccnc(C(=O)NC(CC(=O)O)c2ccccc2Cl)c1 (stereo not drawn) [compound 528]	–	IC50 [3]: 5.81 µM
O=C(O)CC(NC(=O)c1cc(O)ccn1)c1ccccc1Cl (stereo not drawn) [compound 529]	–	IC50 [3]: 5.12 µM
O=C(O)CC(NC(=O)c1ncccc1F)c1ccccc1Cl (stereo not drawn) [compound 530]	–	IC50 [3]: 5.27 µM
O=C(O)CC(NC(=O)c1cccc(F)n1)c1ccccc1Cl (stereo not drawn) [compound 531]	–	IC50 [3]: 7.65 µM
CCc1ccnc(C(=O)NC(CC(=O)O)c2ccccc2Cl)c1 (stereo not drawn) [compound 532]	–	IC50 [3]: 10.2 µM
Cc1cc(C)nc(C(=O)NC(CC(=O)O)c2ccccc2Cl)c1 (stereo not drawn) [compound 533]	–	IC50 [3]: 6.29 µM
COc1cc(C(=O)NC(CC(=O)O)c2ccccc2Cl)ccn1 (stereo not drawn) [compound 536]	–	IC50 [3]: 5.08 µM
